# Data from article PMC12491715 (Acta Pharmaceutica Sinica. B, 2025).
# Several values for one entry are separate records, joined by “and”; a condition that tells them apart may be missing. Identical values can stand only once. Like-named read-outs stand apart in the source and are kept apart here.
# Columns and labels:
# GSK3β = test: Western blot of APP/PS1 mice brain homogenates, GSK3β; format: in vivo, C57BL/6J-TgN(APP/PS1)ZLFILAS mice; settings: 15-day treatment, 1 or 5 mg/kg ip
# BChE = biological target: T1, BChE (Mus musculus, UniProt Q03311); test: Cholinesterase inhibition upon repeated dosing, serum BChE; format: in vivo, C57BL/6JRccHsd mice; settings: for remaining activity at 1 mg/kg / remaining activity at 5 mg/kg: mouse, po
# T1 construct: from tissue; host or cells: mouse serum (C57BL/6JRccHsd)
# Source text: The 12 mice used in this pilot study were 9–14 months old male wild-type C57BL/6JRccHsd mice bred in the Laboratory of Animal Genomics at the Faculty of Veterinary Medicine, University of Ljubljana, or purchased from Envigo RMS Holding Corp. Mice were conventionally bred in open polycarbonate cages (Tecniplast, Buguggiate, Italy) and provided with wood chip bedding (Lignocel®, Rettenmaier and Sons, Germany). Mice were kept under standard conditions, including a 12:12 dark–light cycle (LED, CCT 3000 k, with no more than 25 lux above the cage), a temperature range of 21–24 °C, and humidity between 50%–60%. They were fed irradiated rodent diet (Teklad global 16% protein rodent diet®, BN 2916, Envigo, Udine, Italy) and had access to drinkable tap water ad libitum. Due to the nature of this pilot study, the mice were housed individually. The experimental design was evaluated by the National Ethics Committee for Animal Experiments and approved by the Veterinary Administration of the Republic of Slovenia (document no. U34401-10/2021/8, with amendments U34401-10/2021/13 and U34401-10/2021/1).
# Before the start of study, blood was drawn from the submandibular vein (facial vein) of the animals under isoflurane inhalation anesthesia (Isoflurin®, VetPharma, Spain) using a 5 mm lancet (Goldenrod Animal Sterile, MEDIpoint, Inc., NY, USA), collected in a microtube (Eppendorf, Safe-Lock tube, 0.5 mL, Eppendorf AG, Germany) and allowed to clot. After approximately 1 h, the blood was centrifuged at 6000 × g for 15 min at 4 °C to obtain the sera, which were stored at –80 °C until analysis.
# Seven animals received the 1 mg/kg dose of compound 8, and five animals received the 5 mg/kg dose of compound 8. Compound 8 was prepared as a stock solution in 100% MeCN (5 and 10 mg/mL) and kept refrigerated for the duration of the study. The dosages were prepared as follows: based on the animal’s body weight, a calculated volume of compound 8 stock solution was accurately pipetted onto a cubic piece (approx. 50 mg) of sterilized toast (Ölz multigrain toast, Rudolf Ölz Meisterbäcker GmbH & Co KG, Austria), and left to dry at room temperature for 5 min. Subsequently, 25 μL of 50% sucrose in distilled water were added at the same site to mask the bitter taste of compound 8. These dosage units were prepared twice a week during the study and stored in a closed glass petri dish at room temperature until use. […] Compound 8 was administered in this way for 27 days, eliminating the need for repeated handling and injection. The animals were observed daily for general activity level, hair coat quality or other abnormal behavior or clinical signs.
# 24 h after the last dose was administered, the mice were humanly euthanized under isoflurane inhalation anesthesia (Isoflurin®, VetPharma, Spain) and the blood was withdrawn from the left ventricle using a syringe, collected in a microtube (Eppendorf, Safe-Lock tube, 0.5 mL, Eppendorf AG, Germany) and allowed to clot. After approximately 1 h, the blood was centrifuged at 6000 × g for 15 min at 4 °C to obtain the sera, which were stored at –80 °C until analysis. […] Animal sera (5–10 μL) were diluted in 0.5 mmol/L DTNB in 0.1 mol/L sodium phosphate buffer pH 7.4 (total volume 1000 μL), substrate (5 μL of 100 mmol/L, final concentration 0.5 mmol/L) was added, and the increase in absorbance monitored for 3 min. BChE activity was determined using butyrylthiocholine iodide, while AChE activity was determined on isoOMPA-inhibited sera (buffer-diluted sera were preincubated for 25 min with 1 μL of 100 mmol/L isoOMPA–0.1 mmol/L final concentration) using acetylthiocholine iodide (final concentration 0.5 mmol/L). Measurements were performed in triplicate and pairwise compared before and after treatment for each subject (n = 5 per group).
# [1] = test system: ICR mice icv-injected with Aβ1–42; test: Y maze spontaneous alternation, mice model with icv-injection of Aβ1–42; format: in vivo; settings: ip, once a day
# Protocol: Mice model with icv-injection of Aβ1–42 The experiments were performed using ICR male mice (8–10 weeks old, weight 18–20 g), which were purchased from Shanghai Bikai Animal Breeding Factory (Shanghai, China). Animals were housed in cages (6 mice per cage) at a constant temperature of 25±2 °C, humidity of 55%±10% and a light/dark (12:12) cycle. The mice had unlimited access to food and water prior to the experiment. Specified conditions for the maintenance of mice were ensured throughout the experiments, including tree bedding (Yizheng Anlimao Biotechnology Co., Ltd., China) and lab feed (Zimao, China). For behavioural tests, mice were selected randomly, each group consisted of 6 mice. The experiments were performed between 9 am and 3 pm.
# According to the literature procedure, recombinant human hexafluoroisopropanol-pretreated Aβ1–42 from Merck Millipore (Darmstadt, Germany) was dissolved in 1% DMSO, diluted with saline to the final concentration of 2 mg/mL, and incubated for 72 h to form oligomers. […]
# Spontaneous alternation (Y maze) test was used to assess working memory in mice. […] The experimental data recorded the number of times the animal entered the three arms in a row. […] The behavior of mice in the Y maze was recorded by Xeye Aba and processed by GraphPad Prism 5.
# T1 sequence (Q03311 30-603): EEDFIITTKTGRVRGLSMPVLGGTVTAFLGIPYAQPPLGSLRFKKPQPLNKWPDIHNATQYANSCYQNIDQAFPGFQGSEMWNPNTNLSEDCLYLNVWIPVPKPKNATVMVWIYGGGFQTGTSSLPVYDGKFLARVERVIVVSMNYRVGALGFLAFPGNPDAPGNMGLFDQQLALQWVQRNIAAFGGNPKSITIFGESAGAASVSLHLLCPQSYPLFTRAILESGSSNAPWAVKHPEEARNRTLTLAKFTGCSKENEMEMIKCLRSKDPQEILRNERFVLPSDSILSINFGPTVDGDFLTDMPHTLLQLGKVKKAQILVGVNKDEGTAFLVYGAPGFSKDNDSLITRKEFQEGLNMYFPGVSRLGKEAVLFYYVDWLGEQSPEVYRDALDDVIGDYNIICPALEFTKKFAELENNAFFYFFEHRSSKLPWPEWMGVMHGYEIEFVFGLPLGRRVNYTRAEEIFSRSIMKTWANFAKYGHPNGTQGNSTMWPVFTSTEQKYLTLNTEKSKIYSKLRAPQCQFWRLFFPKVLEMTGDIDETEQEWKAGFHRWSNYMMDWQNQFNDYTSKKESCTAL
structure (smiles),measurement,setting,value
"CCN(CC)C(=O)n1cnc(C2(CC)Cc3ccccc3C2)c1 [Compound 8, N,N-Diethyl-4-(2-ethylindan-2-yl)-1H-imidazole-1-carboxamide]",phosphorylation of GSK3β in whole brain homogenates,GSK3β,increased phosphorylation of GSK3β
same,"BChE residual activity, AVERAGE","BChE; 1 mg/kg p.o. once a day for 4 weeks, compared to before treatment, 1 mg/kg",21%±6%
same,BChE activity AFTER treatment,"BChE; 1 mg/kg p.o. once a day, individual animals, 1 mg/kg",0.2139±0.0118 U/mL and 0.1602±0.0041 U/mL and 0.1484±0.0071 U/mL and 0.2261±0.0071 U/mL and 0.2214±0.0082 U/mL
same,BChE residual activity,"BChE; 1 mg/kg p.o. once a day, individual animals, after vs before treatment, 1 mg/kg",27.0%±4.2% and 15.9%±1.1% and 19.4%±1.8% and 20.1%±2.4%
same,"BChE residual activity, AVERAGE","BChE; 5 mg/kg p.o. once a day for 4 weeks, compared to before treatment, 5 mg/kg",10%±5%
same,BChE activity AFTER treatment,"BChE; 5 mg/kg p.o. once a day, individual animals, 5 mg/kg",0.1060±0.0071 U/mL and 0.0989±0.0071 U/mL and 0.0801±0.0268 U/mL and 0.0683±0.0108 U/mL and 0.0919±0.0000 U/mL
same,BChE residual activity,"BChE; 5 mg/kg p.o. once a day, individual animals, after vs before treatment, 5 mg/kg",10.6%±1.7% and 6.9%±2.9% and 12.1%±2.7% and 10.8%±2.1%
same,remaining activity at 1 mg/kg,"BChE; 1 mg/kg p.o. once a day for 4 weeks, compared to before treatment, read-out: BChE residual activity, AVERAGE",20.6%
same,remaining activity at 1 mg/kg,"BChE; 1 mg/kg p.o. once a day, individual animals, after vs before treatment, read-out: BChE residual activity",20.3%
same,remaining activity at 5 mg/kg,"BChE; 5 mg/kg p.o. once a day for 4 weeks, compared to before treatment, read-out: BChE residual activity, AVERAGE",10.1%
same,remaining activity at 5 mg/kg,"BChE; 5 mg/kg p.o. once a day, individual animals, after vs before treatment, read-out: BChE residual activity",10.1%
same,spontaneous alternation in the Y maze task,[1],increased spontaneous alternation
